Experimental data: patent US12291654B2, “Fluorescent polymeric coating film for medical devices” (UNIVERSITE DE STRASBOURG, priority 2018, dated 2025)

What was measured:
[1] = Fluorescence of coating films made from different hydrophobic polymers (PMMA, PLGA, PLC); assay type: physicochemical; settings: PLGA or PLC, FIG. 10A, 10B
Description: The coating films based on ICG are prepared as control.
Coating films made from different polymers were also tested.

[2] = NIR fluorescence of coated stainless steel wires (fluorescent image system); assay type: physicochemical; settings: PMMA film, dye 1 wt %; coated 1, 2, 3 or 5 times; FIG. 1
Description: Polymethylmethacrylate is dissolved at 30 mg/ml in acetonitrile.
At this step the fiducial is ready to use.

CCCCCCCCCCCCCCCCCCN1/C(=C/C=C/C=C/C=C/C2=[N+](CCCCCCCCCCCCCCCCCC)c3ccc4ccccc4c3C2(C)C)C(C)(C)c2c1ccc1ccccc21 [Cy7.5-C18-TPB, Dioctadecylcyanine 7.5 tetraphenylborate]
brightness of coating films, different polymers [1]: better brightness than a coating film based on ICG
NIR fluorescence of coating film on stainless steel wire [2]: visible after the first coating and increases by multiple coating

CCCCCCCCCCCCCCCCCCN1/C(=C/C=C2\CCCC(/C=C/C3=[N+](CCCCCCCCCCCCCCCCCC)c4ccc5ccccc5c4C3(C)C)=C2Oc2c(-c3ccccc3)cccc2-c2ccccc2)C(C)(C)c2c1ccc1ccccc21.[I-] [HA-06-I]
brightness of coating films, different polymers [1]: better brightness than a coating film based on ICG
